Drawing on PubChem BioAssay (NCI), this text covers GI50 and TGI for eleven molecules.

Among the test systems are BT-549 breast; HCT-15 colon; SK-MEL-2 melanoma; SK-MEL-28 melanoma; SNB-75 CNS; SNB-19 CNS; CAKI-1 renal; TK-10 renal.
Holding throughout (assay): growth of human tumour cells (NCI), 48 h

SMILES strings stand for the structures.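 Protocol summary: plate cells (96-well), add compound at 5 concentrations, incubate 48 h, interpolate endpoints linearly. The concentration for 50% growth inhibition is given as GI50. TGI is the concentration that stops growth completely.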

Turning to `CCn1c(-c2nonc2N)nc2c(C#CC(C)(C)O)ncc(OC3CCNCC3)c21`, the GI50 was 8.78 µM in the assay with BT-549 breast; > 25 µM with HCT-15 colon; 8.01 µM in the assay on SK-MEL-2 melanoma; 14.9 µM in the assay with SK-MEL-28 melanoma; 1.42 µM in the assay on SNB-75 CNS; 7.83 µM in the assay on SNB-19 CNS. In addition, the results for the GI50 in the assay on CAKI-1 renal and in the assay with TK-10 renal were > 25 µM and 6.6 µM, respectively. For the same molecule, the TGI with BT-549 breast was > 25 µM; in the assay on HCT-15 colon it was > 25 µM; with SK-MEL-2 melanoma, 19.4 µM; in the assay on SK-MEL-28 melanoma, > 25 µM; in the assay on SNB-75 CNS, > 25 µM; in the assay with SNB-19 CNS, > 25 µM. In addition, the TGI with CAKI-1 renal and with TK-10 renal was > 25 µM throughout.

With `Cc1ccc(-c2nc3nc(-c4ccc(F)cc4)nc(N4CCNCC4)c3o2)cc1`, the GI50 with BT-549 breast was 13.6 µM; in the assay on HCT-15 colon, 1.67 µM; with SK-MEL-2 melanoma it was 14.9 µM; with SK-MEL-28 melanoma it was 14.9 µM; in the assay on SNB-75 CNS it was 11.6 µM; in the assay on SNB-19 CNS it was 5.97 µM. In addition, the GI50 with CAKI-1 renal was 1.55 µM; with TK-10 renal, 2.07 µM. Further, the TGI in the assay on BT-549 breast came out at 30.1 µM; with HCT-15 colon, 3.38 µM; with SK-MEL-2 melanoma it was 35.4 µM; in the assay on SK-MEL-28 melanoma, 28.7 µM; in the assay with SNB-75 CNS, 23.9 µM; with SNB-19 CNS, 19.8 µM. The figures for the TGI with CAKI-1 renal and in the assay on TK-10 renal were 2.92 µM and 6.38 µM, respectively.

On to `CC(=O)OCC12CN(C#N)C3C4COC(CC41)C1(C(=O)N(C)c4ccccc41)C32` (stereo not drawn), for which the TGI with BT-549 breast came to 10.5 µM; with HCT-15 colon it was 35.5 µM; in the assay with SK-MEL-2 melanoma, 63.6 µM; with SK-MEL-28 melanoma it was 62.9 µM; with SNB-75 CNS, 91.4 µM; with CAKI-1 renal it was 82.9 µM. Also, the TGI in the assay with TK-10 renal is 66.5 µM.

On to `COC(=O)c1cc(NC(=O)c2cc(NC(=O)c3cc([N+](=O)[O-])n(C)c3)cn2C)cn1C`, for which the GI50 with BT-549 breast was 40.1 µM; in the assay with HCT-15 colon, 44.8 µM; in the assay on SK-MEL-2 melanoma, > 100 µM; in the assay with SNB-19 CNS, 34.2 µM; with CAKI-1 renal, > 100 µM; with TK-10 renal, 46.7 µM. In addition, the TGI in the assay on BT-549 breast, in the assay on HCT-15 colon, with SK-MEL-2 melanoma, in the assay with SNB-19 CNS, with CAKI-1 renal and in the assay on TK-10 renal was > 100 µM in each case.

For `COc1cc2c3c(n(CCCN(CCCN(CCCn4c5c(c6ccccc6c4=O)C(=O)c4ccccc4-5)C(=O)OC(C)(C)C)C(=O)OC(C)(C)C)c(=O)c2cc1OC)-c1cc2c(cc1C3=O)OCO2`, the GI50 in the assay with BT-549 breast is 34.7 µM; with SK-MEL-2 melanoma, > 100 µM; in the assay on SK-MEL-28 melanoma, > 100 µM; in the assay with SNB-75 CNS, > 100 µM; with SNB-19 CNS, > 100 µM; in the assay with CAKI-1 renal, 9.85 µM. In addition, in the assay with TK-10 renal, the GI50 is 50.1 µM. Further, the TGI in the assay with BT-549 breast, in the assay with SK-MEL-2 melanoma, in the assay on SK-MEL-28 melanoma, in the assay on SNB-75 CNS, with SNB-19 CNS and in the assay on CAKI-1 renal was > 100 µM each time. Further, in the assay on TK-10 renal, the TGI was > 100 µM.

As for `Cc1ccc([Se](=C(C(=O)c2ccccc2)C(=O)c2ccccc2)c2ccc(C)cc2)cc1`, the TGI is 44.7 µM in the assay with HCT-15 colon; > 100 µM in the assay with SK-MEL-2 melanoma; > 100 µM in the assay with SK-MEL-28 melanoma; > 100 µM in the assay with SNB-75 CNS; > 100 µM in the assay on SNB-19 CNS; 57.7 µM in the assay on CAKI-1 renal. The same molecule showed a TGI in the assay on TK-10 renal of 94.6 µM.

Consider `O=[N+]([O-])c1ccc(/C=C/c2nc3ccc(Cl)cc3[nH]2)cc1`, for which the GI50 is 11.7 µM in the assay with HCT-15 colon; > 100 µM with SK-MEL-2 melanoma; > 100 µM with SK-MEL-28 melanoma; 76.9 µM in the assay with SNB-75 CNS; > 100 µM in the assay with SNB-19 CNS; 34.6 µM with CAKI-1 renal. Also, the GI50 in the assay on TK-10 renal is 28.2 µM. The TGI in the assay with HCT-15 colon was > 100 µM; in the assay on SK-MEL-2 melanoma, > 100 µM; in the assay on SK-MEL-28 melanoma, > 100 µM; with SNB-75 CNS, > 100 µM; in the assay with SNB-19 CNS, > 100 µM; in the assay on CAKI-1 renal it was 91 µM. In addition, in the assay with TK-10 renal, the TGI is > 100 µM.

For the molecule `CCCCCCCCCCCCCC[n+]1ccccc1`, the GI50 is 1.9 µM with HCT-15 colon; 0.592 µM in the assay with SK-MEL-2 melanoma; 1.31 µM with SK-MEL-28 melanoma; 0.523 µM with SNB-75 CNS; 0.833 µM in the assay on CAKI-1 renal; 0.491 µM in the assay on TK-10 renal. In addition, the TGI with HCT-15 colon came out at 13.2 µM; in the assay on SK-MEL-2 melanoma it was 2.19 µM; in the assay on SK-MEL-28 melanoma it was 3.03 µM; with SNB-75 CNS it was 2.22 µM; with CAKI-1 renal it was 5.43 µM; in the assay on TK-10 renal it was 1.81 µM.

For `COc1ccc(/C=C/C(=O)c2c(O)ccc3c(C)c(C(=O)O)oc23)cc1`, the GI50 with BT-549 breast is 73.7 µM; in the assay with HCT-15 colon, 28.2 µM; with SK-MEL-28 melanoma it was > 100 µM; in the assay with SNB-19 CNS, 64.9 µM; in the assay on CAKI-1 renal it was 63.2 µM; in the assay on TK-10 renal, > 100 µM. Further, the TGI in the assay on BT-549 breast, in the assay with HCT-15 colon, in the assay on SK-MEL-28 melanoma, in the assay on SNB-19 CNS, in the assay with CAKI-1 renal and in the assay with TK-10 renal was > 100 µM each time.

For the molecule `O=C(CCCn1c2c(sc3ccccc32)c(=O)n2nnc(-c3ccccc3)c12)NCCc1cnc[nH]1`, the GI50 in the assay with BT-549 breast was 6.9 µM; in the assay with HCT-15 colon, 0.505 µM; in the assay with SK-MEL-2 melanoma it was 2.37 µM; with SK-MEL-28 melanoma it was 1.01 µM; in the assay on SNB-75 CNS, 1.95 µM; with SNB-19 CNS it was 2.97 µM. In addition, in the assay with TK-10 renal, the GI50 was 2 µM. The TGI in the assay with BT-549 breast was determined as 18.2 µM; with HCT-15 colon, 2.14 µM; in the assay on SK-MEL-2 melanoma, 4.98 µM; in the assay on SK-MEL-28 melanoma, 2.36 µM; in the assay on SNB-75 CNS it was 3.51 µM; in the assay on SNB-19 CNS it was 14.7 µM. The same molecule had a TGI in the assay on TK-10 renal of 3.75 µM.

As to `O=C(CN1CCN(Cc2ccccc2Cl)CC1)NC1CC(=O)c2c(Br)sc(Br)c21` (stereo not drawn), the GI50 with BT-549 breast is 19.4 µM; with HCT-15 colon, 18 µM; in the assay on SK-MEL-2 melanoma it was 15.7 µM; in the assay on SK-MEL-28 melanoma, 18.1 µM; with SNB-19 CNS, 18.6 µM; with CAKI-1 renal, 19.9 µM. For the same molecule, the GI50 in the assay with TK-10 renal was 44.3 µM. The TGI is 35.7 µM in the assay with BT-549 breast; 34.1 µM with HCT-15 colon; 31.4 µM with SK-MEL-2 melanoma; 32.2 µM in the assay with SK-MEL-28 melanoma; 33.1 µM with SNB-19 CNS; 37.6 µM in the assay with CAKI-1 renal. The molecule further gave a TGI in the assay with TK-10 renal of 97.1 µM.
